We go through 15 compounds from PubChem BioAssay (NCI).

What all share (test): NCI anticancer screen, dose series, 48 h
The subject of test [1] is OVCAR-8 ovarian.
Test [2] has as its system SK-MEL-5 melanoma.
The subject of test [3] is NCI-H226 lung.
In test [4] the test system is BT-549 breast.
In test [5] the test system is SK-OV-3 ovarian.
Test [6] deals with SNB-75 CNS.
In test [7] the test system is SF-539 CNS.
Test [8] has as its system COLO 205 colon.
Test [9] deals with HL-60(TB) leukemia.
For test [10], the system named is LOX IMVI melanoma.

Molecules are shown by their SMILES.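 These data come from cells grown in 96-well plates and exposed to compound for 48 hours at five concentrations. Abbreviation: GI50, concentration required for 50% inhibition of growth. TGI is the concentration that stops growth completely.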 Bounds are passed on as bounds.

`O=C(Nc1ccc(-c2nc(-c3cccc(OCCN4CCOCC4)c3)c(-c3ccnc(Br)c3)[nH]2)cc1)c1ccccc1`: the GI50 in test [1] was 3.96 µM; in test [2], 1.77 µM; in test [3] it was 2.94 µM; in test [4], 2.71 µM; in test [5], 2.15 µM; in test [6] it was 0.364 µM. In addition, the GI50 in test [7] is 1.23 µM. Moreover, the TGI in test [1] was over 100 µM; in test [2] it was 3.21 µM; in [3] it was over 100 µM; in test [4] it was over 100 µM; in [5] it was 4.79 µM; in test [6], 2.76 µM. In addition, the TGI in test [7] turned out to be 3.71 µM.
On to `CCCCCC[C@H](C)Nc1nc2ccccc2c2occc12`, for which the GI50 in test [1] was 10.8 µM; in test [2] it was 3.66 µM; in [4], 4.38 µM; in [5] it was 16.5 µM; in test [8] it was 34.4 µM; in [6], 14.8 µM. Further, the values for the GI50 in [9], in [7] and in test [10] were 11.9 µM, 4.16 µM and 8.61 µM, respectively. Also, the TGI in test [1] was 26.3 µM; in [2], 18 µM; in test [4] it was 18.5 µM; in test [5], 36.2 µM; in test [8] it was over 100 µM; in [6], 30.5 µM. Moreover, the figures for the TGI in [9], in test [7] and in test [10] were 37.8 µM, 15.2 µM and 21.4 µM, respectively.
For the compound `c1ccc2c(c1)SCCCSCCSCCCS2`, the TGI in test [1], in test [2], in test [4], in test [5], in test [8] and in test [6] was over 100 µM each time. Further, the TGI in test [9], in [7] and in [10] was over 100 µM each time.
Turning to `COc1cc(NC(=O)CCSc2nc3ccc(C)cc3c(=O)n2Cc2ccccc2)cc(OC)c1OC`, the GI50 in [1] is 5.01 µM; in test [2], 32.4 µM; in test [3], 2.66 µM; in test [4], 5.02 µM; in [5] it was 4.75 µM; in test [8] it was over 100 µM. Besides, the GI50 in test [6] is 1.9 µM; in test [7], 2.5 µM; in test [10], 6.4 µM. Besides, the TGI was over 100 µM in test [1]; over 100 µM in test [2]; 12.3 µM in test [3]; over 100 µM in test [4]; 39.3 µM in test [5]; over 100 µM in test [8]. Moreover, the figures for the TGI in test [6], in test [7] and in test [10] were 4.78 µM, 7.26 µM and over 100 µM, respectively.
For `CC(C)(C)OC(=O)NCCCn1c2c(c3ccccc3c1=O)C(=O)c1ccccc1-2`, the GI50 in test [1] was 13.3 µM; in test [2], 35.2 µM; in test [3] it was 63.5 µM; in test [4] it was 31.7 µM; in test [5], 25 µM; in [8] it was over 100 µM. In addition, the results for the GI50 in test [9], in [7] and in [10] were over 100 µM, 10.3 µM and 6.98 µM, respectively. Further, the TGI in test [1] is 58.2 µM; in [2], over 100 µM; in [3] it was over 100 µM; in test [4] it was over 100 µM; in [5], over 100 µM; in [8], over 100 µM. For the same compound, the TGI in test [9] was over 100 µM; in test [7] it was 29.3 µM; in [10], 43 µM.
`COc1cc(C)c(C2NC(=O)c3ccccc3N2)cc1C` (configuration not stated): the TGI in test [1] is over 66.5 µM; in test [2], 5.49 µM; in [3], 16.5 µM; in [4], 71.4 µM; in test [8] it was 4.64 µM; in [6] it was 0.496 µM. The TGI in test [9] was 0.396 µM; in test [7], 0.734 µM; in [10] it was 97.9 µM.
For `O=C(c1ccccc1)c1c(NCC(O)CN2CCOCC2)n(Cc2ccccc2)c(=O)n(Cc2ccccc2)c1=O` (configuration not stated), the GI50 in test [1] was 48.9 µM; in test [2], 33.4 µM; in test [3], 31.6 µM; in [4], 29.3 µM; in test [5], over 29.9 µM; in test [8], 7.61 µM. In addition, the GI50 was over 36.8 µM in test [6], over 68 µM in test [7] and 38.6 µM in [10]. The TGI in test [1] is over 100 µM; in test [2], over 100 µM; in test [3], over 95.1 µM; in test [4] it was over 100 µM; in [5], over 70.1 µM; in test [8], over 39.1 µM. In addition, the TGI was over 81.7 µM in [6], over 100 µM in test [7] and over 100 µM in test [10].
Turning to `Cc1ccc(N=Nc2c(O)ccc3ccccc23)cc1`, the TGI in [1], in test [2], in test [3], in [4], in test [5] and in test [8] was over 100 µM throughout. The TGI in test [6] and in test [10] was over 100 µM throughout.
As to `COc1cc2c(cc1OC)C(=O)/C(=C/c1cc(-c3ccc4c(c3)OCO4)n[nH]1)C2`, the GI50 in [1] was 1.57 µM; in test [2] it was 1.67 µM; in test [4], 1.62 µM; in test [5], 2.89 µM; in test [8], 1.7 µM; in test [6], 1.65 µM. Further, the GI50 in test [9] was 2.07 µM; in test [7] it was 1.27 µM. The TGI in test [1] was 3.05 µM; in test [2], 3.06 µM; in test [4], 3.04 µM; in test [5], 7.16 µM; in [8], 3.11 µM; in test [6], 3.02 µM. Moreover, the TGI in test [9] amounted to 5.59 µM; in test [7], 2.57 µM.
With `CCCCCCCCNCCC[C@@H](C)[C@H]1CC[C@H]2[C@@H]3[C@H](OCCCN)C[C@H]4C[C@H](OCCCN)CC[C@]4(C)[C@H]3C[C@H](OCCCN)[C@]12C`, the GI50 is 1.82 µM in test [1]; 2.24 µM in test [2]; 5.21 µM in [3]; 1.43 µM in [4]; 4.72 µM in test [5]; 2.6 µM in [8]. Moreover, the GI50 in test [6] was 2.52 µM; in test [7], 0.81 µM; in test [10], 1.57 µM. Also, the TGI in test [1] came out at 4.07 µM; in test [2] it was 6.54 µM; in test [3], 23.6 µM; in test [4] it was 4.35 µM; in [5], 21.9 µM; in test [8], 7.77 µM. Moreover, the values for the TGI in test [6], in [7] and in test [10] were 11.6 µM, 2.6 µM and 3.54 µM, respectively.
Take `O=c1[nH]c2ccccc2n1CCCN1CCC(n2c(=O)[nH]c3cc(Cl)ccc32)CC1`: the TGI in test [1] came to 38.6 µM; in [2] it was 29.1 µM; in [3], 45 µM; in test [4], 33.2 µM; in [5], 51.5 µM; in [8] it was 27.9 µM. In test [9], this compound registered a TGI of 37.3 µM.
For `c1ccc2c(-c3nc(-c4c[nH]c5ccncc45)cs3)c[nH]c2c1`, the GI50 in test [1] is 1.97 µM; in test [2] it was 1.6 µM; in test [3], 3.24 µM; in test [4], 8.82 µM; in test [5] it was 2.62 µM; in [6] it was 10.3 µM. In addition, the GI50 in test [9] is 2.02 µM; in test [7], 1.79 µM. The TGI was found to be 4.33 µM in test [1]; 2.99 µM in test [2]; 17.7 µM in test [3]; 21.3 µM in test [4]; 8.29 µM in [5]; 22.2 µM in test [6]. Besides, the TGI amounted to 4.73 µM in test [9] and 3.29 µM in test [7].
With `NCCOCCOCCNc1nc(-c2ccc(Cl)cc2)nc(N2CCN(c3ccccn3)CC2)n1`, the GI50 in test [1] was 4.06 µM; in test [2] it was 1.71 µM; in [3], 13.7 µM; in [4] it was 4.48 µM; in test [5], 2.67 µM; in test [6] it was 2.32 µM. For the same compound, the GI50 in test [9] is 2.12 µM; in [7] it was 2.41 µM. Also, the TGI in test [1] was determined as 30.6 µM; in [2], 3.19 µM; in test [3] it was 39.9 µM; in [4] it was 21.2 µM; in test [5], 6.28 µM; in test [6], 7.45 µM. Also, the TGI is 4.15 µM in test [9] and 5.18 µM in test [7].
Turning to `CSCCCNC(=O)c1ccc2c(c1)/C(=C/c1[nH]c(C)cc1C)C(=O)N2`, the GI50 in test [1] is 1.95 µM; in test [2] it was 1.57 µM; in test [3], 2.24 µM; in test [4] it was 2.7 µM; in [5], 0.366 µM; in test [8], 0.943 µM. Besides, the GI50 is 2.54 µM in test [9], 0.734 µM in [7] and 1.02 µM in test [10]. Also, the TGI is over 100 µM in test [1]; over 100 µM in [2]; over 100 µM in test [3]; over 100 µM in test [4]; 62.8 µM in [5]; over 100 µM in [8]. Also, the TGI in test [9], in test [7] and in [10] was over 100 µM throughout.
With `COC(=O)C1=C(C(=O)OC)C2(C)C=CC1O2` (configuration not stated), the TGI is 31.7 µM in test [1]; 32.8 µM in test [2]; 39.9 µM in [3]; 46 µM in test [4]; over 100 µM in test [5]; 32.6 µM in test [8]. The TGI in test [6] turned out to be 66.2 µM; in test [7] it was 33 µM; in test [10], 34.5 µM.
